Tests used:
Human BLT2 = settings: cited from earlier work
Human BLT1 = settings: high affinity receptor; ref. [12]; cited from earlier work
[1] = system: K/BxN serum-transfer arthritis in C57BL/6 mice; experiment: K/BxN serum transfer arthritis model, treatment of established disease (Example 2); assay type: in vivo, mouse (C57BL/6); settings: 50 mg/kg orally once daily, day 4 to day 14
Description: The K/BxN serum-transfer arthritis (STA) model was used to test whether established arthritic disease could be ameliorated by Coversin.
(§1) Experimental RA was induced using the protocol described by. Five mice were tested in each treatment group.
(§2) On day 0 C57BL/6 mice were assessed for clinical score and paw thickness using standard protocols. All mice received an injection of K/BxN serum on day 0 and on day 2. The treatment was administered every day from day 4 to day 14. On days where serum was also injected (day 0 and day 2) drug was administered immediately after the serum injection. Clinical score and paw thickness were measured every other day.
Treatment groups were as follows: • Group 1: PBS (vehicle) • Group 2: Treatment (PAS-L Coversin 20 mg/kg subcutaneous once daily) • Group 3: Treatment (Zileuton 50 mg/kg orally once daily) • Group 4: Treatment (PAS-Coversin 20 mg/kg subcutaneous once daily)

[2] = system: K/BxN serum-transfer arthritis in C57BL/6 mice; experiment: K/BxN serum transfer arthritis model, prophylactic (Example 1); assay type: in vivo, mouse (C57BL/6); settings: 50 mg/kg orally once daily, day 0 to day 14
Excerpt: The K/BxN serum-transfer arthritis model was used to test whether development of arthritis could be prevented by Coversin. This model is a well-known murine model in which the immunological mechanisms occurring in rheumatoid arthritis (RA) are induced by transferring serum from arthritic transgenic K/BxN mice to naive mice. In the absence of treatment arthritic symptoms occur a few days later. This model is recognised to be highly relevant for RA, especially for the preclinical screening of new therapeutic targets for RA and perhaps other forms of inflammatory arthritis.
as §1
as §2, with “2. Each” for “2. The”, “day 0” for “day 4”
Treatment groups were as follows: • Group 1: PBS (vehicle, subcutaneous, q24h) • Group 2: Treatment (Coversin 5 mg/kg subcutaneous, q12h) • Group 3: Treatment (Zileuton 50 mg/kg orally once daily) • Group 4: Treatment (PAS-Coversin 20 mg/kg subcutaneous, once daily)

| SMILES | lower affinity for LTB4 than BLT1 (Human BLT2; BLT2 compared with BLT1) [fold] | Kd (Human BLT2; human BLT2) [nM] | Kd (Human BLT1) [nM] | day of maximum clinical score [1] [days] | development of arthritis [2] |
| --- | --- | --- | --- | --- | --- |
| CCCCC/C=C\C[C@@H](O)/C=C/C=C/C=C\[C@@H](O)CCCC(=O)O [LTB4, Leukotriene B4] | 20 | 23 | 0.39 to 1.5 | – | – |
| CC(c1cc2ccccc2s1)N(O)C(N)=O (centres unmarked) [Zileuton, N-[1-(1-benzothien-2-yl)ethyl]-N-hydroxyurea] | – | – | – | 6 | partially ameliorates the development of arthritis |

Reference: patent publication US20250195612A1, “Coversin for use in the treatment of rheumatic diseases” (Volution Immuno Pharmaceuticals SA, priority 2018, published 2025)
